Laboratory results reported in the supplement of paper PMC10307832.

Columns and labels:
Assay in all cases: relative viability (nuclei count vs DMSO), 5 days (fraction); higher = more cells survive
[1] = tested on: ABC-1
Method in brief: (§1)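 Lung cancer cell lines were seeded in 1536-well plates and dosed by pin tool the next day, with either a single drug or a fixed anchor-drug dose combined with five library-drug doses (not always all listed) spaced in √10 steps. Five days later, one step fixed the cells and stained their nuclei (final 0.05% Triton X-100, 1% formaldehyde, 1 ug/ml Hoechst), and nuclei were counted on 4× images. Relative viability is the nuclei count in treated wells divided by the count in vehicle wells, and each value is the median of duplicate plates.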

[2] = tested on: COR-L23
Method in brief: as §1

[3] = tested on: ChaGo-K-1
Method in brief: as §1

[4] = tested on: EMC-BAC-2
Method in brief: as §1

[5] = tested on: HARA
Method in brief: as §1

[6] = tested on: HCC-15
Method in brief: as §1

[7] = tested on: HCC-366
Method in brief: as §1

[8] = tested on: HCC-78
Method in brief: as §1

[9] = tested on: HOP-62
Method in brief: as §1

[10] = tested on: LC-2-ad
Method in brief: as §1

[11] = tested on: NCI-H1395
Method in brief: as §1

[12] = tested on: NCI-H1793
Method in brief: as §1

[13] = tested on: NCI-H1944
Method in brief: as §1

[14] = tested on: NCI-H1993
Method in brief: as §1

[15] = tested on: NCI-H2023
Method in brief: as §1

[16] = tested on: NCI-H2126
Method in brief: as §1

[17] = tested on: NCI-H2228
Method in brief: as §1

[18] = tested on: NCI-H23
Method in brief: as §1

[19] = tested on: NCI-H2405
Method in brief: as §1

[20] = tested on: NCI-H358
Method in brief: as §1

[21] = tested on: NCI-H838
Method in brief: as §1

[22] = tested on: SK-LU-1
Method in brief: as §1

CCN(CC)CCCCNc1ncc2cc(-c3cc(OC)cc(OC)c3)c(NC(=O)NC(C)(C)C)nc2n1 + O=C(CCCCCCC(=O)Nc1ccccc1)NO [Vorinostat] (partner 1 µM)
relative viability ([1]; first compound 0.03162 µM): 0.99 | relative viability ([1]; first compound 0.1 µM): 1.35 | relative viability ([1]; first compound 0.3162 µM): 1.01 | relative viability ([1]; first compound 1 µM): 1.09 | relative viability ([2]; first compound 0.01 µM): 0.467 | relative viability ([2]; first compound 0.03162 µM): 0.495 | relative viability ([2]; first compound 0.1 µM): 0.379 | relative viability ([2]; first compound 0.3162 µM): 0.593 | relative viability ([2]; first compound 1 µM): 0.434 | relative viability ([3]; first compound 0.01 µM): 0.776 | relative viability ([3]; first compound 0.03162 µM): 0.822 | relative viability ([3]; first compound 0.1 µM): 0.824 | relative viability ([3]; first compound 0.3162 µM): 0.827 | relative viability ([3]; first compound 1 µM): 0.693 | relative viability ([4]; first compound 0.03162 µM): 0.403 | relative viability ([4]; first compound 0.1 µM): 0.428 | relative viability ([4]; first compound 0.3162 µM): 0.758 | relative viability ([4]; first compound 1 µM): 0.444 | relative viability ([5]; first compound 0.01 µM): 0.406 | relative viability ([5]; first compound 0.03162 µM): 0.483 | relative viability ([5]; first compound 0.1 µM): 0.528 | relative viability ([5]; first compound 0.3162 µM): 0.51 | relative viability ([5]; first compound 1 µM): 0.365 | relative viability ([6]; first compound 0.01 µM): 0.857 | relative viability ([6]; first compound 0.03162 µM): 0.849 | relative viability ([6]; first compound 0.1 µM): 0.867 | relative viability ([6]; first compound 0.3162 µM): 0.929 | relative viability ([6]; first compound 1 µM): 0.836 | relative viability ([7]; first compound 0.01 µM): 0.414 | relative viability ([7]; first compound 0.03162 µM): 0.369 | relative viability ([7]; first compound 0.1 µM): 0.423 | relative viability ([7]; first compound 0.3162 µM): 0.383 | relative viability ([7]; first compound 1 µM): 0.288 | relative viability ([8]; first compound 0.01 µM): 0.479 | relative viability ([8]; first compound 0.03162 µM): 0.487 | relative viability ([8]; first compound 0.1 µM): 0.478 | relative viability ([8]; first compound 0.3162 µM): 0.456 | relative viability ([8]; first compound 1 µM): 0.497 | relative viability ([9]; first compound 0.01 µM): 0.715 | relative viability ([9]; first compound 0.03162 µM): 0.595 | relative viability ([9]; first compound 0.1 µM): 0.616 | relative viability ([9]; first compound 0.3162 µM): 0.65 | relative viability ([9]; first compound 1 µM): 0.663 | relative viability ([10]; first compound 0.01 µM): 0.716 | relative viability ([10]; first compound 0.03162 µM): 0.798 | relative viability ([10]; first compound 0.1 µM): 0.76 | relative viability ([10]; first compound 0.3162 µM): 0.739 | relative viability ([10]; first compound 1 µM): 0.66 | relative viability ([11]; first compound 0.01 µM): 0.648 | relative viability ([11]; first compound 0.03162 µM): 0.786 | relative viability ([11]; first compound 0.1 µM): 0.714 | relative viability ([11]; first compound 0.3162 µM): 0.742 | relative viability ([11]; first compound 1 µM): 0.513 | relative viability ([12]; first compound 0.01 µM): 0.724 | relative viability ([12]; first compound 0.03162 µM): 0.707 | relative viability ([12]; first compound 0.1 µM): 0.898 | relative viability ([12]; first compound 0.3162 µM): 0.816 | relative viability ([12]; first compound 1 µM): 0.599 | relative viability ([13]; first compound 0.01 µM): 0.536 | relative viability ([13]; first compound 0.03162 µM): 0.676 | relative viability ([13]; first compound 0.1 µM): 0.596 | relative viability ([13]; first compound 0.3162 µM): 0.576 | relative viability ([13]; first compound 1 µM): 0.521 | relative viability ([14]; first compound 0.01 µM): 0.776 | relative viability ([14]; first compound 0.03162 µM): 0.726 | relative viability ([14]; first compound 0.1 µM): 0.899 | relative viability ([14]; first compound 0.3162 µM): 0.882 | relative viability ([14]; first compound 1 µM): 0.695 | relative viability ([15]; first compound 0.01 µM): 0.534 | relative viability ([15]; first compound 0.03162 µM): 0.756 | relative viability ([15]; first compound 0.1 µM): 0.686 | relative viability ([15]; first compound 0.3162 µM): 0.6 | relative viability ([15]; first compound 1 µM): 0.567 | relative viability ([16]; first compound 0.01 µM): 0.771 | relative viability ([16]; first compound 0.03162 µM): 0.834 | relative viability ([16]; first compound 0.1 µM): 0.807 | relative viability ([16]; first compound 0.3162 µM): 0.834 | relative viability ([16]; first compound 1 µM): 0.822 | relative viability ([17]; first compound 0.01 µM): 0.643 | relative viability ([17]; first compound 0.03162 µM): 0.515 | relative viability ([17]; first compound 0.1 µM): 0.807 | relative viability ([17]; first compound 0.3162 µM): 0.794 | relative viability ([17]; first compound 1 µM): 0.595 | relative viability ([18]; first compound 0.01 µM): 0.615 | relative viability ([18]; first compound 0.03162 µM): 0.711 | relative viability ([18]; first compound 0.1 µM): 0.715 | relative viability ([18]; first compound 0.3162 µM): 0.467 | relative viability ([18]; first compound 1 µM): 0.581 | relative viability ([19]; first compound 0.01 µM): 0.795 | relative viability ([19]; first compound 0.03162 µM): 1.03 | relative viability ([19]; first compound 0.1 µM): 1.08 | relative viability ([19]; first compound 0.3162 µM): 1.22 | relative viability ([19]; first compound 1 µM): 0.94 | relative viability ([20]; first compound 0.01 µM): 0.684 | relative viability ([20]; first compound 0.03162 µM): 0.879 | relative viability ([20]; first compound 0.1 µM): 0.813 | relative viability ([20]; first compound 0.3162 µM): 0.806 | relative viability ([20]; first compound 1 µM): 0.583 | relative viability ([21]; first compound 0.01 µM): 0.669 | relative viability ([21]; first compound 0.03162 µM): 0.732 | relative viability ([21]; first compound 0.1 µM): 0.779 | relative viability ([21]; first compound 0.3162 µM): 0.69 | relative viability ([21]; first compound 1 µM): 0.592 | relative viability ([22]; first compound 0.01 µM): 0.922 | relative viability ([22]; first compound 0.03162 µM): 0.795 | relative viability ([22]; first compound 0.1 µM): 0.782 | relative viability ([22]; first compound 0.3162 µM): 0.973 | relative viability ([22]; first compound 1 µM): 0.67
